# Data taken from ChEMBL document CHEMBL1201862, “PubChem BioAssay data set” (2004).
#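 Interpolation was linear, between the two tested concentrations surrounding the appropriate level; five concentrations were tested over 48 hours in 96-well plates. GI50 is the concentration that inhibits growth by half.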 The source made the active and inactive calls. No stated cut-off is given here; in the data, active = GI50 up to about 1.1 µM and inactive = higher.
# Tests used:
# Experiment in all cases: NCI tumour cell line growth inhibition, 48 h
# HL-60 = test system: HL-60
# ACHN = test system: ACHN
# SF-539 = test system: SF-539
# UO-31 = test system: UO-31
# SK-MEL-5 = test system: SK-MEL-5
# DU-145 = test system: DU-145
# SNB-75 = test system: SNB-75
# OVCAR-3 = test system: OVCAR-3
# UACC-62 = test system: UACC-62
# U-251 = test system: U-251
# MCF7 = test system: MCF7
# NCI-H23 = test system: NCI-H23
# HCT-15 = test system: HCT-15
# EKVX = test system: EKVX
# A498 = test system: A498
# SF-295 = test system: SF-295
# SK-OV-3 = test system: SK-OV-3
# CAKI-1 = test system: CAKI-1
# MDA-MB-231 = test system: MDA-MB-231
# Malme-3M = test system: Malme-3M
# SNB-19 = test system: SNB-19
# IGROV-1 = test system: IGROV-1
# RXF 393 = test system: RXF 393
# OVCAR-8 = test system: OVCAR-8
# HT-29 = test system: HT-29
# HCC 2998 = test system: HCC 2998
# OVCAR-4 = test system: OVCAR-4
# MDA-MB-435 = test system: MDA-MB-435
# UACC-257 = test system: UACC-257
# Hs-578T = test system: Hs-578T
# SR = test system: SR
# NCI-H226 = test system: NCI-H226
# HOP-92 = test system: HOP-92
# A549 = test system: A549
# BT-549 = test system: BT-549
# HCT-116 = test system: HCT-116
# PC-3 = test system: PC-3
# K562 = test system: K562
# NCI/ADR-RES = test system: NCI/ADR-RES
# CCRF-CEM = test system: CCRF-CEM
# TK-10 = test system: TK-10
# M14 = test system: M14
# NCI-H460 = test system: NCI-H460
# NCI-H522 = test system: NCI-H522
# RPMI-8226 = test system: RPMI-8226
# SK-MEL-28 = test system: SK-MEL-28
# HOP-62 = test system: HOP-62
# MDA-N = test system: MDA-N
# 786-0 = test system: 786-0
# SK-MEL-2 = test system: SK-MEL-2
# T47D = test system: T47D
# KM12 = test system: KM12
# COLO 205 = test system: COLO 205
# OVCAR-5 = test system: OVCAR-5
# SF-268 = test system: SF-268
# SW-620 = test system: SW-620
# SN12C = test system: SN12C
# LOX IMVI = test system: LOX IMVI
smiles,measurement,setting,value
Cc1c(-c2ccccc2)c(C#N)c2nnn(C3CCCCC3)c(=O)n12,GI50,HL-60,> 100 µM (inactive)
same,GI50,ACHN,50.5 µM (inactive)
same,GI50,SF-539,47.4 µM (inactive)
same,GI50,UO-31,740 nM (active)
same,GI50,SK-MEL-5,72.4 µM (inactive)
same,GI50,DU-145,> 100 µM (inactive)
same,GI50,SNB-75,28 µM (inactive)
same,GI50,OVCAR-3,> 100 µM (inactive)
same,GI50,UACC-62,> 100 µM (inactive)
same,GI50,U-251,53.2 µM (inactive)
same,GI50,MCF7,> 100 µM (inactive)
same,GI50,NCI-H23,> 100 µM (inactive)
same,GI50,HCT-15,> 100 µM
same,GI50,EKVX,37 µM (inactive)
same,GI50,A498,65.8 µM (inactive)
same,GI50,SF-295,29.5 µM (inactive)
same,GI50,SK-OV-3,60.3 µM (inactive)
same,GI50,CAKI-1,425 nM (active)
same,GI50,MDA-MB-231,21.6 µM (inactive)
same,GI50,Malme-3M,> 100 µM (inactive)
same,GI50,SNB-19,66.5 µM (inactive)
same,GI50,IGROV-1,60.4 µM (inactive)
same,GI50,RXF 393,19.8 µM (inactive)
same,GI50,OVCAR-8,44 µM (inactive)
same,GI50,HT-29,11.6 µM (inactive)
same,GI50,HCC 2998,> 100 µM (inactive)
same,GI50,OVCAR-4,40.6 µM (inactive)
same,GI50,MDA-MB-435,> 100 µM (inactive)
same,GI50,UACC-257,> 100 µM (inactive)
same,GI50,Hs-578T,97.9 µM (inactive)
same,GI50,SR,24.8 µM (inactive)
same,GI50,NCI-H226,35.8 µM (inactive)
same,GI50,HOP-92,24 µM (inactive)
same,GI50,A549,83.4 µM (inactive)
same,GI50,BT-549,> 100 µM (inactive)
same,GI50,HCT-116,52.6 µM (inactive)
same,GI50,PC-3,20.2 µM (inactive)
same,GI50,K562,88.3 µM (inactive)
same,GI50,NCI/ADR-RES,> 100 µM (inactive)
same,GI50,CCRF-CEM,> 100 µM (inactive)
same,GI50,TK-10,> 100 µM (inactive)
same,GI50,M14,87.3 µM (inactive)
same,GI50,NCI-H460,> 100 µM (inactive)
same,GI50,NCI-H522,> 100 µM (inactive)
same,GI50,RPMI-8226,47.4 µM (inactive)
same,GI50,SK-MEL-28,> 100 µM (inactive)
same,GI50,HOP-62,14.7 µM (inactive)
same,GI50,MDA-N,> 100 µM (inactive)
same,GI50,786-0,24.5 µM (inactive)
same,GI50,SK-MEL-2,31.6 µM (inactive)
same,GI50,T47D,> 100 µM (inactive)
same,GI50,KM12,> 100 µM (inactive)
same,GI50,COLO 205,88.1 µM (inactive)
same,GI50,OVCAR-5,94.4 µM (inactive)
same,GI50,SF-268,> 100 µM (inactive)
same,GI50,SW-620,> 100 µM (inactive)
same,GI50,SN12C,98.2 µM (inactive)
same,GI50,LOX IMVI,> 100 µM (inactive)
